{
  "source": "ChEMBL document CHEMBL4049391",
  "about": "“Vicinal diaryl azole-based urea derivatives as potential cholesterol lowering agents acting through inhibition of SOAT enzymes” (Eur J Med Chem, 2017)",
  "key": {"Rattus norvegicus [1]": {"system": "Rattus norvegicus", "assay": "Anti-atherosclerosis activity in high cholesterol diet-induced Wistar rat atherogenesis model assessed as lipid accumulation lesion area in thoracic aorta at 10 mg/kg, po administered once daily measured after 4 weeks by Sudan red 4 staining based photographic method (reference value: 22.35 +/- 7.9%)", "type": "functional"}, "Rattus norvegicus [2]": {"system": "Rattus norvegicus", "assay": "Toxicity in Wistar rat assessed as effect on body weight at 10 mg/kg, po administered once daily measured after 4 weeks (reference value: 290.3 +/- 8.1 g)", "type": "organism-based", "conditions": "in vivo, 672 h"}, "Rattus norvegicus [3]": {"system": "Rattus norvegicus", "assay": "Acute toxicity in Wistar rat assessed as change in grooming behavior at 2000 mg/kg, po administered as single dose measured at 6 hrs post dose", "type": "organism-based", "conditions": "in vivo"}, "Rattus norvegicus [4]": {"system": "Rattus norvegicus", "assay": "Acute toxicity in Wistar rat assessed as effect on urinary excretion at 60 mg/kg, po administered as repeated dosing for 28 days", "type": "organism-based", "conditions": "in vivo, 672 h"}, "Rattus norvegicus [5]": {"system": "Rattus norvegicus", "assay": "Toxicity in Wistar rat assessed as cutaneous toxicity at 10 to 30 mg/kg, po administered once daily measured after 4 weeks", "type": "organism-based", "conditions": "in vivo, 672 h"}, "Rattus norvegicus [6]": {"system": "Rattus norvegicus", "assay": "Acute toxicity in Wistar rat assessed as macroscopic lesions in adrenal gland at 2000 mg/kg, po administered as single dose measured up to 14 days", "type": "organism-based", "conditions": "in vivo, 336 h"}, "Rattus norvegicus [7]": {"system": "Rattus norvegicus", "assay": "Acute toxicity in Wistar rat assessed as effect on viscera at 2000 mg/kg, po administered as single dose measured up to 14 days", "type": "organism-based", "conditions": "in vivo, 336 h"}, "Rattus norvegicus [8]": {"system": "Rattus norvegicus", "assay": "Acute toxicity in Wistar rat assessed as effect on breathing at 2000 mg/kg, po administered as single dose measured up to 14 days", "type": "organism-based", "conditions": "in vivo, 336 h"}, "Rattus norvegicus [9]": {"system": "Rattus norvegicus", "assay": "Acute toxicity in Wistar rat assessed as change in body weight at 2000 mg/kg, po administered as single dose measured at 6 hrs post dose", "type": "organism-based", "conditions": "in vivo"}, "Rattus norvegicus [10]": {"system": "Rattus norvegicus", "assay": "Anti-atherosclerosis activity in high cholesterol diet-induced Wistar rat atherogenesis model assessed as reduction in LDL-cholesterol level at 10 mg/kg, po administered once daily measured after 4 weeks", "type": "functional, organism-based"}, "Rattus norvegicus [11]": {"system": "Rattus norvegicus", "assay": "Anti-atherosclerosis activity in high cholesterol diet-induced Wistar rat atherogenesis model assessed as reduction in fatty streak formation in thoracic aorta at 10 mg/kg, po administered once daily measured after 4 weeks by Sudan red 4 staining based photographic method", "type": "functional, organism-based"}},
  "note": "Activity calls are given as the source filed them. The rule behind the calls is not given here.",
  "data": [
    {"smiles": "CCCCNC(=O)Nc1ccc(-c2sc(C)nc2-c2ccc(C)cc2)cc1", "values": [
      {"measurement": "Activity", "setting": "Rattus norvegicus [1]", "result": 16.21, "unit": "%"},
      {"measurement": "Activity", "setting": "Rattus norvegicus [2]", "result": 294, "unit": "g"},
      {"measurement": "Activity", "setting": "Rattus norvegicus [3]", "result": "Non-Toxic"},
      {"measurement": "Activity", "setting": "Rattus norvegicus [4]", "result": "Non-Toxic"},
      {"measurement": "Activity", "setting": "Rattus norvegicus [5]", "result": "Non-Toxic"},
      {"measurement": "Activity", "setting": "Rattus norvegicus [6]", "result": "Non-Toxic"},
      {"measurement": "Activity", "setting": "Rattus norvegicus [7]", "result": "Non-Toxic"},
      {"measurement": "Activity", "setting": "Rattus norvegicus [8]", "result": "Non-Toxic"},
      {"measurement": "Activity", "setting": "Rattus norvegicus [9]", "result": "Non-Toxic"},
      {"measurement": "Activity", "setting": "Rattus norvegicus [10]", "result": "inactive"},
      {"measurement": "Activity", "setting": "Rattus norvegicus [11]", "result": "inactive"}
    ]}
  ]
}
